According to PubChem BioAssay (NCI):
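Method: 48-hour compound exposure of cells in 96-well plates, five concentrations, linear interpolation of endpoints. GI50 is the concentration that inhibits growth by half. TGI is the concentration that stops growth completely.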

Legend:
Assay in all cases: NCI-60 cell line screen, 48 h
[1] = system: UO-31 renal
[2] = system: UACC-62 melanoma
[3] = system: SNB-75 CNS
[4] = system: TK-10 renal
[5] = system: BT-549 breast
[6] = system: NCI-H522 lung
[7] = system: U251 CNS
[8] = system: SK-MEL-2 melanoma
[9] = system: OVCAR-5 ovarian
[10] = system: MALME-3M melanoma
[11] = system: EKVX NSCLC
[12] = system: MDA-MB-231 breast
[13] = system: DU-145 prostate
[14] = system: HCC-2998 colon
[15] = system: ACHN renal
[16] = system: SN12C renal
[17] = system: KM12 colon
[18] = system: MCF7 breast
[19] = system: NCI/ADR-RES ovarian
[20] = system: OVCAR-8 ovarian
[21] = system: SF-539 CNS
[22] = system: COLO 205 colon
[23] = system: CAKI-1 renal
[24] = system: SF-268 CNS
[25] = system: SK-MEL-5 melanoma
[26] = system: SW-620 colon
[27] = system: HCT-116 colon
[28] = system: SK-MEL-28 melanoma
[29] = system: K-562 leukemia
[30] = system: CCRF-CEM leukemia
[31] = system: OVCAR-3 ovarian
[32] = system: NCI-H23 lung
[33] = system: HOP-62 NSCLC
[34] = system: NCI-H460 lung
[35] = system: HS 578T breast
[36] = system: HT29 colon
[37] = system: SNB-19 CNS
[38] = system: IGROV1 ovarian
[39] = system: HCT-15 colon
[40] = system: MOLT-4 leukemia
[41] = system: MDA-MB-435
[42] = system: OVCAR-4 ovarian
[43] = system: LOX IMVI melanoma
[44] = system: SF-295 CNS
[45] = system: UACC-257 melanoma
[46] = system: PC-3 prostate
[47] = system: M14 melanoma
[48] = system: HL-60(TB) leukemia
[49] = system: RPMI-8226 leukemia
[50] = system: SR leukemia
[51] = system: A498 renal
[52] = system: T-47D breast
[53] = system: NCI-H226 lung
[54] = system: A549 NSCLC
[55] = system: SK-OV-3 ovarian
[56] = system: 786-0 renal
[57] = system: RXF 393 renal
[58] = system: HOP-92 NSCLC

In the case of `COc1ccc2[nH]c(C(=O)OCc3ccc4c(Br)cc(Br)c(O)c4n3)cc2c1`, the GI50 [1] is reported as 360 nM, the TGI [1] is reported as 1850 nM and the GI50 [2] is reported as 1060 nM. It also gave a TGI [2] of 2290 nM, a GI50 [3] of 307 nM and a TGI [3] of 1730 nM. The GI50 [4] was 1390 nM, the TGI [4] was 2710 nM and the GI50 [5] was 881 nM. The TGI [5] was 2160 nM, the GI50 [6] was 395 nM and the TGI [6] was 1820 nM. The GI50 [7] was 1490 nM, the TGI [7] was 2920 nM and the GI50 [8] was 1550 nM. For the same compound, the TGI [8] was 3.12 µM, the GI50 [9] was 1210 nM and the TGI [9] was 2660 nM. For the same compound, the GI50 [10] was 1450 nM, the TGI [10] was 2850 nM and the GI50 [11] was 1410 nM. For the same compound, the TGI [11] was 2820 nM, the GI50 [12] was 808 nM and the TGI [12] was 2170 nM. For the same compound, the GI50 [13] was 1120 nM, the TGI [13] was 2330 nM and the GI50 [14] was 1570 nM. It also gave a TGI [14] of 3.06 µM, a GI50 [15] of 343 nM and a TGI [15] of 1350 nM. For the same compound, the GI50 [16] was 617 nM, the TGI [16] was 2020 nM and the GI50 [17] was 1640 nM. For the same compound, the TGI [17] was 3.38 µM, the GI50 [18] was 442 nM and the TGI [18] was 2050 nM. It also gave a GI50 [19] of 1680 nM, a TGI [19] of 7.3 µM and a GI50 [20] of 907 nM. The TGI [20] was 2640 nM, the GI50 [21] was 768 nM and the TGI [21] was 2050 nM. The GI50 [22] was 442 nM, the TGI [22] was 1920 nM and the GI50 [23] was 482 nM. It also gave a TGI [23] of 1830 nM, a GI50 [24] of 1480 nM and a TGI [24] of 2920 nM. For the same compound, the GI50 [25] was 1610 nM, the TGI [25] was 2970 nM and the GI50 [26] was 364 nM. For the same compound, the TGI [26] was 1410 nM, the GI50 [27] was 187 nM and the TGI [27] was 543 nM. It also gave a GI50 [28] of 1260 nM, a TGI [28] of 2530 nM and a GI50 [29] of 495 nM. The TGI [29] was 4.94 µM, the GI50 [30] was 331 nM and the TGI [30] was over 100 µM. For the same compound, the GI50 [31] was 447 nM, the TGI [31] was 1560 nM and the GI50 [32] was 1380 nM. It also gave a TGI [32] of 2990 nM, a GI50 [33] of 1380 nM and a TGI [33] of 3.34 µM. The GI50 [34] was 1480 nM, the TGI [34] was 3.18 µM and the GI50 [35] was 1660 nM. For the same compound, the TGI [35] was 4.97 µM, the GI50 [36] was 390 nM and the TGI [36] was 1490 nM. It also gave a GI50 [37] of 1500 nM, a TGI [37] of 2890 nM and a GI50 [38] of 418 nM. For the same compound, the TGI [38] was 1670 nM, the GI50 [39] was 355 nM and the TGI [39] was 1230 nM. The GI50 [40] was 452 nM, the TGI [40] was 2170 nM and the GI50 [41] was 836 nM. For the same compound, the TGI [41] was 2200 nM, the GI50 [42] was 895 nM and the TGI [42] was 2250 nM. It also gave a GI50 [43] of 188 nM, a TGI [43] of 453 nM and a GI50 [44] of 2020 nM. The TGI [44] was 5.33 µM, the GI50 [45] was 1380 nM and the TGI [45] was 2850 nM. The GI50 [46] was 730 nM, the TGI [46] was 2270 nM and the GI50 [47] was 830 nM. For the same compound, the TGI [47] was 2290 nM, the GI50 [48] was 700 nM and the TGI [48] was 3.41 µM. It also gave a GI50 [49] of 308 nM, a TGI [49] of 1290 nM and a GI50 [50] of 293 nM. The TGI [50] was 2040 nM, the GI50 [51] was 1800 nM and the TGI [51] was 3.31 µM. It also gave a GI50 [52] of 1150 nM, a TGI [52] of 3.57 µM and a GI50 [53] of 1300 nM. For the same compound, the TGI [53] was 2810 nM, the GI50 [54] was 1630 nM and the TGI [54] was 3.54 µM. It also gave a GI50 [55] of 3.16 µM, a TGI [55] of 14.4 µM and a GI50 [56] of 1230 nM. It also gave a TGI [56] of 2610 nM, a GI50 [57] of 486 nM and a TGI [57] of 1800 nM. The GI50 [58] was 352 nM and the TGI [58] was 1750 nM.
